We go through 15 molecules from patent US9381172B2, “Small molecule choline kinase inhibitors, screening assays, and methods for treatment of neoplastic disorders” (UNIVERSITY OF LOUISVILLE RESEARCH FOUNDATION, INC., priority 2009, dated 2016).

Data set [1] relates to HeLa Cells. Briefly: Cell Growth Inhibition, HeLa cells (trypan blue exclusion). In kind it is cell-based. Conditions: for IC50: Homo sapiens, HeLa, 48 h after treatment, 50% of vehicle-treated cell growth. How it is done: (§1) HeLa (ATCC: CCL-2), A549-human lung carcinoma (ATCC: CCL-185), Lewis lung carcinoma (LLC) (ATCC: CRL-1642), and melanoma cells (ATCC: CRL-11147) were cultured in DMEM (Hyclone) supplemented with 10% fetal bovine serum (Hyclone) and 50 μg/mL gentamicin sulfate (Invitrogen). Jurkat leukemia cells were cultured in RPMI (Hyclone) supplemented with 10% fetal bovine serum and 50 μg/mL gentamicin sulfate. Human mammary epithelial cells were grown in mammary epithelial basal medium (Lonza) supplemented according to manufacturer's protocol. All cell lines were maintained at 5% CO2 at 37° C.
(§2) All cell lines were plated at 1×10^5/mL in the appropriate medium. For suspension cells, the tested compound was added immediately to the medium, whereas the tested compound treatment was initiated the following day for adherent cell lines. For overexpression studies, HeLa cells were transiently transfected with empty vector or vector containing wild type choline kinase twenty-four hours prior to addition of increasing concentrations of CK37. Cells were then collected 48 h after treatment, and cell number and viability were determined by trypan blue exclusion. IC50s were calculated at the tested compound concentration needed for 50% of vehicle-treated cell growth (see Table 4). The data represented are the mean±STD from triplicate measurements from three independent experiments.

A further data set relates to Jurkat Cells. Nature of the data set: Cell Growth Inhibition, Jurkat cells (trypan blue exclusion). The data set is classed as cell-based. As to conditions: for IC50: Homo sapiens, Jurkat, 48 h after treatment, 50% of vehicle-treated cell growth. The protocol:
as §1, §2

Data set [2] concerns HT-29 human adenocarcinoma cells. As to conditions: reported; cited from earlier work.
Another data set addresses choline kinase. As to conditions: reported; cited from earlier work.
The subject of data set [3] is HeLa cell endogenous choline kinase. As to conditions: reported; cited from earlier work.
For data set [4] the following is noted: reported; cited from earlier work.
Data set [5] has as its system choline kinase (HeLa lysates). Briefly: Choline kinase activity assay of HeLa cell lysates. The data set is classed as biochemical. As to conditions: HeLa cell lysate; FIG. 7. The protocol:
Choline kinase activity was assayed as described previously in Hernandez-Alcoceba et al. “Choline kinase inhibitors as a novel approach for antiproliferative drug design,” Oncogene 1997, 15:2289-2301, the disclosure of which is incorporated herein by this reference. For HeLa cell lysate, equal volume of lysate was incubated in the presence or absence of the tested compound in kinase assay buffer (100 mM Tris-HCl, 100 mM MgCl2, 10 mM ATP, 200 μM choline, and 2 μM methyl[^14C]-choline chloride (50-60 μCi, mmol). Reactions were carried out at 37° C. for one hour and immediately stopped by addition of TCA (Trichloroacetic Acid) to a final concentration of 16%. The TCA soluble fraction was then washed 3× with four volumes of water saturated ethyl ether, and dried under vacuum. Metabolites were separated by thin layer chromatography using 60 Å silica gel plates and a liquid phase consisting of 0.9% NaCl:methanol:ammonium hydroxide (50:70:5; V:V:V). Radioactive images were resolved by PhosphorImager screening and densitometry was performed using Image Quant software.

The test system of data set [6] is primary mammary epithelial cells (HMEC). Briefly: Cell Growth Inhibition, primary mammary epithelial cells. The data set is classed as cell-based, human. As to conditions: FIG. 3B. The protocol:
as §1, §2

Data set [7] can be described thus: Tolerability of intraperitoneal CK37 in C57B1/6 mice. The data set is classed as in vivo. The protocol:
In order to investigate some possible non-toxic doses of CK37 for use in vivo, we intraperitoneally injected C57B1/6 mice with 0.06, 0.07, and 0.08 mg/g of CK37. […] C57B1/6 mice bearing Lewis Lung Carcinoma xenografts (mean baseline mass=143±14 mg) were given intraperitoneal injections of 0.08 mg/g CK37 daily for nine days. As shown in FIG. 5A-B, CK37 administration suppressed tumor growth by 48% compared to the vehicle control group.

In data set [8] the test system is various neoplastic cell lines from both solid and hematologic origins. Nature of the data set: Cell Growth Inhibition, various neoplastic cell lines. In kind it is cell-based. Conditions: all tumor cell lines investigated; FIG. 3A; read-out: IC50 values of cell growth suppression. The protocol:
as §1, §2

The test system of another data set is Lewis Lung Carcinoma. Briefly: Mouse tumors: Lewis lung carcinoma in C57B1/6 mice. In kind it is in vivo. Conditions: 0.08 mg/g i.p. daily for nine days. The protocol:
Exponentially growing Lewis lung carcinoma cells were collected, washed twice, and resuspended in PBS (1×10^7/mL). C57B1/6 female mice (20 g) were injected s.c. with 0.1 mL of the suspension. Body weight and tumor growth were monitored daily throughout the study. Tumor masses were determined by measurement with Vernier calipers using the formula: mass (mg)=[width^2 (mm)×length (mm)]/2. Mice with established tumors (between 130 and 190 mg) were randomized into vehicle control or the tested compound treated groups. Vehicle control groups received i.p. injections of 50 μL DMSO, whereas treated groups received 0.08 mg/g the tested compound in 50 μL DMSO at the indicated time points. All protocols were approved by the University of Louisville Institutional Animal Care and Use Committee.

Data set [9] concerns endogenous choline kinase (HeLa cells). Nature of the data set: Choline kinase activity in whole HeLa cells (radiolabeled choline). In kind it is cell-based. How it is done:
For HeLa cell labeling, cells were seeded at 1×10^5 cells/mL and incubated with increasing concentrations of the tested compound for 48 hours. Methyl[^14C]-choline chloride was added 24 hours before cell harvest, and cells were extracted and analyzed as described above. Densitometry units were normalized to total protein levels for each sample.

Data set [10] deals with MDA-MB-231 mammary carcinoma cells. Nature of the data set: Cell Growth Inhibition, MDA-MB-231 cells. The data set is classed as cell-based. As to conditions: FIG. 3B. The protocol: as §2
The test system of data set [11] is HeLa Cells. Nature of the data set: Soft agar colony formation. The data set is classed as cell-based. As to conditions: 5 μM CK37; 14 days; Control: 2506±158. How it is done:
HeLa cells were plated at a density of 25×10^3 cells per 60-mm plate with 3 mL bottom agar (0.6%) and 2 mL top agar (0.3%) in normal growth medium. Cells were fed every three days by addition of a new layer of top agar which contained increasing concentrations of the tested compound. After 14 days of growth, colonies were counted in random from 1 cm squared sections of each plate.

Where two headings read alike, the source gives them in different places.

In the case of `CCC(=O)c1ccc(OCC(=O)OCc2csc(-c3ccc(OC)cc3)n2)cc1` [I], the IC50 in the data set on HeLa Cells [1] was above 25 µM; with Jurkat Cells it was above 10 µM.
In the case of `CC(OC(=O)CCC(=O)c1cccs1)C(=O)Nc1cccc2ccccc12` (stereo not shown) [G], the IC50 with HeLa Cells [1] is above 25 µM; in the data set on Jurkat Cells, above 10 µM.
The like results for `COCCNC(=O)CN1C(=O)NC(C)(c2ccc(C)cc2)C1=O` (stereo not shown) [M] were, in that order, above 25 µM and above 10 µM.
Regarding `COc1cc(C(C)=O)ccc1OCC(=O)NCc1ccc(C)cc1` [J], the half-inhibitory concentration (IC50) in the data set on HeLa Cells [1] is above 25 µM; in the data set with Jurkat Cells it was above 10 µM.
In the case of `CN(C)c1cc[n+](Cc2ccc(CCCCc3ccc(C[n+]4ccc(N(C)C)cc4)cc3)cc2)cc1.[Br-].[Br-]` [MN58B], the concentration for half-maximal inhibition (IC50) is 0.5 µM in data set [2] and 4.2 µM at choline kinase. Further, the “inhibition in HeLa cell endogenous choline kinase” value in data set [3] is given as 75%. The dose limiting toxicity in data set [4] was 5 to 10 mg/kg.
As to `C=CCn1c(COc2cccc(C)c2)nnc1SCc1ncc(-c2ccccc2)o1` [O], the concentration for half-maximal inhibition (IC50) is above 25 µM in the data set with HeLa Cells [1] and above 10 µM with Jurkat Cells.
The like results for `CCCNC(=O)COC(=O)CN1C(=O)N[C@@](C)(c2ccc(C)cc2)C1=O` [H] were, in that order, above 25 µM and above 10 µM.
The like results for `CCC1(c2ccccc2)NC(=O)N(CC(=O)c2ccc(OC)cc2OC)C1=O` (stereo not shown) [A] were, in that order, above 25 µM and above 10 µM.
For `C[C@@]1(c2ccc3ccccc3c2)NC(=O)N(CC(=O)OCC(=O)NCCC#N)C1=O` [B] the same measures were above 25 µM and above 10 µM.
With `COc1ccccc1CNC(=O)CN1C(=O)NC(C)(c2ccc(C)cc2)C1=O` (stereo not shown) [K], the half-maximal inhibitory concentration (IC50) was above 25 µM in the data set on HeLa Cells [1] and above 10 µM in the data set on Jurkat Cells.
As for `COc1ccc(OCC(=O)OC(C)C(=O)Nc2cccc3ccccc23)cc1` (stereo not shown) [CP6], in the data set on HeLa Cells [1] (FIG. 8), the HeLa cell proliferation entry is listed as “selectively suppresses HeLa cell proliferation”. Besides, the half-inhibitory concentration (IC50) in the data set with HeLa Cells [1] was 12.6 µM; with Jurkat Cells, 9.8 µM. For the same molecule, the “endogenous choline kinase activity” value in [5] is on record as “dose-dependent decrease in endogenous choline kinase activity”. The Jurkat cell proliferation result in the data set with Jurkat Cells (FIG. 9) is recorded as “selectively suppresses Jurkat cell proliferation”.
As to `CCc1ccc(-c2nnc(SCC(=O)Nc3cc(C)cc(C)c3)[nH]2)cc1` [CK37, N-(3,5-dimethylphenyl)-2-[[5-(4-ethylphenyl)-1H-1,2,4-triazol-3-yl]sulfanyl]acetamide], the values for the half-maximal inhibitory concentration (IC50) (with HeLa Cells [1]; in data set [8]; with Jurkat Cells) were 4.2 µM, 5 to 10 µM and 5.4 µM, respectively. Moreover, the “CK37 concentration compared for growth suppression” value was 10 µM in data set [6] and 0.5 µM in [10] (MDA-MB-231). Moreover, the “clinical signs or symptoms of distress” value in [7] (0.06, 0.07, and 0.08 mg/g intraperitoneally) is “no clinical signs or symptoms of distress”. In addition, in data set [7] (mice), the dose limiting toxicity was above 80 mg/kg. Moreover, in the data set with Lewis Lung Carcinoma, the “tumor growth suppression compared to the vehicle control group” value is 48%. Besides, in the data set on Lewis Lung Carcinoma (Vehicle: 1109±107 mg, p<0.01), the “wet weight of resected tumors at the end of treatment” value amounted to 648 ± 96 mg. The “inhibition of endogenous choline kinase activity in whole cells” value in data set [9] (10 μM, 48 hours, FIG. 2B) is reported as 61.7%±9.7%. Further, in data set [9] (about the same concentration as MN58B, somewhat different conditions), the “decrease in HeLa cell endogenous choline kinase” value was determined as 60%. Besides, in [10] (MDA-MB-231 versus HMEC), the “difference in selectivity against neoplastic versus primary cell growth” value turned out to be 20 fold. Also, the “number of soft agar colonies” value in the data set with HeLa Cells [11] worked out at 360±77.
Regarding `CCc1ccc(C(=O)CN2C(=O)NC(CC)(c3ccccc3)C2=O)cc1` (stereo not shown) [E], the half-inhibitory concentration (IC50) was above 25 µM with HeLa Cells [1] and above 10 µM in the data set with Jurkat Cells.
For `COc1ccccc1COC(=O)CN1C(=O)N[C@@](C)(c2ccc(C)cc2)C1=O` [P] the same measures were 18.3 µM and above 10 µM.
For `CSc1ccc(C=CC(=O)OCC(=O)NC(Cc2ccccc2)C(C)=O)cc1` (stereo not shown) [C] the same measures were 15.2 µM and above 10 µM.
